These results are taken from US7488791B2, “Mixture of peptides derived from E6 and/or E7 papillomavirus proteins and uses thereof” (priority 2001, dated 2009).

The target in assay [1] is T1, HLA-DR1 molecule (DRB1*0101) (Homo sapiens, UniProt P01903+P01911, A100R/D57E/F55L/F60I/F76Y/I96L/L162R/M171V/P40L/Q125E/R42F/V115G/Y59C).
T1 construct: endogenous in cells
The assay can be described thus: biochemical. The assay is classed as binding. The method, then: (§1) The incubation conditions are specific to each HLA-DR molecule (incubation time, pH, reagent R1, concentration of HLA-DR or of peptide). […]
(§2) The HLA-DR molecules were purified from various homozygous EBV lines by immunoaffinity. The method described in Southwood et al. (24) can in particular be used. Their origin and the various alleles which characterize them are described in table IV.
(§3) The monomorphic antibody specific for the HLA-DR molecules is in particular that described in Southwood et al. (24) or that described in Posch et al. (25). The antibodies are purified from culture supernatants on protein A-sepharose columns. These antibodies are coupled to sepharose 4B or protein A-sepharose columns for purification of the HLA-DR molecules. • HLA-DR/Peptide Binding Assays
(§4) The assays for binding of the peptides to the HLA-DR molecules are competition assays with immuno-enzymatic revelation, initially developed by Hill on the HLA-DR molecule (26). They are carried out in 96-well plates, which makes it possible to study many samples in the same experiment. Briefly, the purified HLA-DR molecules are incubated with a biotinylated peptide which serves as a tracer and various concentrations of test peptide.
(§5) After incubation for 24 to 72 hours, these samples are neutralized, and then 100 μl of each sample are transferred onto an ELISA plate precoated with the HLA-DR molecule-specific monomorphic antibody.
(§6) The choice of the biotinylated peptides is the determining element of the assay specificity.
(§7) For each HLA-DRB1 molecule, the concentration of MHC II molecules, the concentration of the biotinylated peptide, the incubation pH and the incubation time were optimized as specified in table V below.

Assay [2] has as its target T2, HLA-DR11 molecule (DRB1*1101) (Homo sapiens, UniProt P01903+P01911, A100R/A169T/A87E/I96F/K41T/L162R/M171V/P40S/Q125H/Q178H/Q39Y/Q99D/R42S/S66Y/T262R/V115G/W38E).
T2 construct: endogenous in cells
The assay can be described thus: biochemical. The class given is binding. The method, then:
as §1, §2, §3, §4, §5, §6, §7

Assay [3] has as its target HLA-DR7 molecule (DRB1*0701) (Homo sapiens, UniProt P01903+P01911, A100R/A102G/A103Q/D57E/D86V/E43K/F76Y/K127E/L162R/M171V/P40G/Q125H/Q99D/R33Q/R42Y/R54Q/S133A/S66F/T210M/V115G/Y107V/Y59L/Y89S). The assay can be described thus: biochemical. The class given is binding. The method, then:
as §1, §2, §3, §4, §5, §6, §7

For assay [4], the target named is T3, HLA-DR3 molecule (DRB1*0301) (Homo sapiens, UniProt P01903+P01911, A100K/A102G/A103R/A169T/F55Y/I96L/K41T/L162R/M171V/P40S/Q125H/Q178H/Q39Y/R42S/S66N/T106N/T262R/W38E/Y61H).
T3 construct: endogenous in cells
T3 sequence (P01903 26-254, other chains not shown): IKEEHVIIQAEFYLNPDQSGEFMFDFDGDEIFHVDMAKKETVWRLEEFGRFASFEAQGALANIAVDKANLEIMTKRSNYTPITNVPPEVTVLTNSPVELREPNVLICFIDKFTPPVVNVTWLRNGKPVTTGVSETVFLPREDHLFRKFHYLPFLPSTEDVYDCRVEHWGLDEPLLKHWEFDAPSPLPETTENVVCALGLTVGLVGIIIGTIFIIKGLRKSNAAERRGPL
The assay can be described thus: biochemical. The assay is classed as binding. The method, then:
as §1, §2, §3, §4, §5, §6, §7

Assay [5] concerns the target T4, HLA-DRB5*0101 molecule (B5) (Homo sapiens, UniProt P01903+Q30154).
T4 construct: endogenous in cells
The assay can be described thus: biochemical. The class given is binding. The method, then: as §1, §2, §3, §4, §5
(§8) The alleles studied are the alleles most commonly encountered. They are the alleles HLA-DRB3*0101, HLA-DRB4*0101 and HLA-DRB5*0101.
as §6

In assay [6] the target is T5, HLA-DRB4*0101 molecule (B4) (Homo sapiens, UniProt P01903+P13762, G164S).
T5 construct: endogenous in cells
The assay can be described thus: biochemical. The assay is classed as binding. The method, then: as §1, §2, §3, §4, §5, §8, §6

The target of assay [7] is T6, HLA-DR4 molecule (DRB1*0401) (Homo sapiens, UniProt P01903+P01911, A100K/A169T/F76Y/I96L/K127E/L162R/M171V/N62H/P40V/Q125Y/R42H/S133A/S149N/S66Y/V115G/V209L/W38E).
T6 construct: endogenous in cells
The assay can be described thus: HLA-DR/peptide competition binding assay, DRB1*0401. The method, then:
as §1, §2, §3, §4, §5, §6, §7

In assay [8] the target is T7, HLA-DR15 molecule (DRB1*1501) (Homo sapiens, UniProt P01903+P01911).
T7 construct: endogenous in cells
The assay can be described thus: biochemical. The assay is classed as binding. The method, then:
as §1, §2, §3, §4, §5, §6, §7

Read-outs that look alike come from different tables or passages of the source. Residues, ends and D or L forms follow the SMILES beside them. A value given as a limit tells only on which side of the number the result lay.

T2 sequence (P01903 26-254, other chains not shown): as above

By IC50 is commonly meant the concentration that gives 50% inhibition. Low readings indicate greater potency, high ones weaker potency. For the compound `CC[C@H](C)[C@H](NC(=O)[C@H](CC(N)=O)NC(=O)[C@H](Cc1c[nH]cn1)NC(=O)[C@H](Cc1ccccc1)NC(=O)[C@H](CCCNC(=N)N)NC(=O)[C@@H](N)CCC(N)=O)C(=O)N[C@@H](CCCNC(=N)N)C(=O)NCC(=O)N[C@@H](CCCNC(=N)N)C(=O)N[C@@H](Cc1c[nH]c2ccccc12)C(=O)N[C@H](C(=O)NCC(=O)N[C@@H](CCCNC(=N)N)C(=O)N[C@@H](CS)C(=O)N[C@@H](CCSC)C(=O)O)[C@@H](C)O` [E6 130-144, Q R F H N I R G R W T G R C M] (H-QRFHNIRGRWTGRCM-OH; N-terminus and C-terminus assumed), the IC50 was 4 nM in assay [1], 115 nM in assay [2] and 950 nM in assay [3].

`CC(C)C[C@H](NC(=O)[C@H](CC(=O)O)NC(=O)[C@@H](NC(=O)[C@@H](NC(=O)[C@H](CCC(=O)O)NC(=O)[C@@H]1CCCN1C(=O)[C@H](CCC(N)=O)NC(=O)[C@H](CC(C)C)NC(=O)[C@H](CC(=O)O)NC(=O)[C@@H](N)CC(C)C)[C@@H](C)O)[C@@H](C)O)C(=O)N[C@@H](Cc1ccc(O)cc1)C(=O)N[C@@H](CS)C(=O)N[C@@H](Cc1ccc(O)cc1)C(=O)N[C@@H](CCC(=O)O)C(=O)N[C@@H](CCC(N)=O)C(=O)O` [E7 13-27, L D L Q P E T T D L Y C Y E Q]: the IC50 in assay [1] is 4000 nM; in assay [4], 3500 nM; in assay [2] it was 3500 nM; in assay [5] (Binding activity DRB5 (concentration giving 50% inhibition of maximum binding), Table VIIb, DRB5*0101, tracer HA 306-318), greater than 10000 nM; in assay [6] (Table VIIb, DRB4*0101, tracer E2/E168) it was greater than 10000 nM.

As for `CC[C@H](C)[C@H](N)C(=O)N[C@@H](Cc1c[nH]cn1)C(=O)N[C@@H](CC(=O)O)C(=O)N[C@H](C(=O)N[C@H](C(=O)N[C@@H](CC(C)C)C(=O)N[C@@H](CCC(=O)O)C(=O)N[C@@H](CS)C(=O)N[C@H](C(=O)N[C@@H](Cc1ccc(O)cc1)C(=O)N[C@@H](CS)C(=O)N[C@@H](CCCCN)C(=O)N[C@@H](CCC(N)=O)C(=O)N[C@@H](CCC(N)=O)C(=O)N[C@@H](CC(C)C)C(=O)N[C@@H](CC(C)C)C(=O)N[C@@H](CCCNC(=N)N)C(=O)N[C@@H](CCCNC(=N)N)C(=O)N[C@@H](CCC(=O)O)C(=O)N[C@H](C(=O)N[C@@H](Cc1ccc(O)cc1)C(=O)O)C(C)C)C(C)C)[C@@H](C)CC)[C@@H](C)CC` [E6/3], the 50% inhibitory concentration (IC50) was determined as 400 nM in assay [1]; 1000 nM in assay [4]; 800 nM in assay [2]; 700 nM in assay [6] (Table VIIa, DRB4*0101, tracer E2/E168).

On to “E6 (91-119): peptide corresponding to positions 91-119 of the E6 protein of HPV16, SEQ ID No. 13 (YGTTLEQQYNKPLCDLLIRCINCQKPLCP; Description of the artificial sequence peptide E6 91-119)”, for which, in assay [7], the “Binding to the DRB1*0401 molecule, in words” value is listed as “good affinity”. Besides, the “Binding to the DRB1*0101 molecule, in words” value in assay [1] was “good affinity”. Further, the “Binding to the DRB1*0301 molecule, in words” value in assay [4] is given as “good affinity”. In addition, the “Binding to the DRB1*1501 molecule, in words” value in assay [8] is “good affinity”. The “Binding to the DRB1*0701 molecule, in words” value in assay [3] is listed as “good affinity”. For the same compound, the “Binding to the DRB5*0101 molecule, in words” value in assay [5] is “good affinity”.

With `CC[C@H](C)[C@H](NC(=O)[C@H](CC(=O)O)NC(=O)[C@@H](N)Cc1c[nH]cn1)C(=O)N[C@H](C(=O)N[C@@H](CC(C)C)C(=O)N[C@@H](CCC(=O)O)C(=O)N[C@@H](CS)C(=O)N[C@H](C(=O)N[C@@H](Cc1ccc(O)cc1)C(=O)N[C@@H](CS)C(=O)N[C@@H](CCCCN)C(=O)N[C@@H](CCC(N)=O)C(=O)N[C@@H](CCC(N)=O)C(=O)N[C@@H](CC(C)C)C(=O)N[C@@H](CC(C)C)C(=O)O)C(C)C)[C@@H](C)CC` [E6 31-45, H D I I L E C V Y C K Q Q L L], the IC50 in assay [4] was greater than 10000 nM; in assay [2] it was 600 nM; in assay [6] it was greater than 10000 nM.
